The record followed here is patent publication US20220081444A1, “6,7-DIHYDRO-4H-PYRAZOLO[1,5-A]PYRAZINE INDOLE-2-CARBOXAMIDES ACTIVE AGAINST THE HEPATITIS B VIRUS (HBV)” (AiCuris GmbH & Co. KG, priority 2018, published 2022).

Each structure is given as a SMILES string. Structures can show the parent of a compound that is named as a salt. Bounds are passed on as bounds.

The test system of this experiment is HBV. The conditions noted are these: Hepatitis B virus, HePAD38, 144 h, read-out: Cell Activity (EC50).

In general, EC50 refers to the concentration that produces a half-maximal response.

With `CCc1cccc2[nH]c(C(=O)N3CCn4nc(NS(=O)(=O)C5CC5)cc4C3)cc12` [Example 40, N-[5-(4-ethyl-1H-indole-2-carbonyl)-4H,5H,6H,7H-pyrazolo[1,5-a]pyrazin-2-yl]cyclopropanesulfonamide], the concentration giving a half-maximal response (EC50) was less than 1 µM. On to `O=C(Nc1cc2n(n1)CCN(C(=O)c1cc3ccccc3[nH]1)C2)C1CCNCC1` [Example 41, N-[5-(1H-indole-2-carbonyl)-4H,5H,6H,7H-pyrazolo[1,5-a]pyrazin-2-yl]piperidine-4-carboxamide Hydrochloride], for which the EC50 was less than 1 µM. On to `CC(=O)N1CCC(C(=O)Nc2cc3n(n2)CCN(C(=O)c2cc4ccccc4[nH]2)C3)CC1` [Example 42, 1-acetyl-N-[5-(1H-indole-2-carbonyl)-4H,5H,6H,7H-pyrazolo[1,5-a]pyrazin-2-yl]piperidine-4-carboxamide], for which the EC50 was less than 1 µM. Next, `O=C(c1cc2ccccc2[nH]1)N1CCn2nc(NS(=O)(=O)Cc3ccccc3)cc2C1` [Example 43, N-[5-(1H-indole-2-carbonyl)-4H,5H,6H,7H-pyrazolo[1,5-a]pyrazin-2-yl]-1-phenylmethanesulfonamide]: less than 1 µM; `CCS(=O)(=O)Nc1cc2n(n1)CCN(C(=O)c1cc3ccccc3[nH]1)C2` [Example 45, N-[5-(1H-indole-2-carbonyl)-4H,5H,6H,7H-pyrazolo[1,5-a]pyrazin-2-yl]ethane-1-sulfonamide]: less than 1 µM. Turning to `Cc1noc(C)c1S(=O)(=O)Nc1cc2n(n1)CCN(C(=O)c1cc3ccccc3[nH]1)C2` [Example 46, N-[5-(1H-indole-2-carbonyl)-4H,5H,6H,7H-pyrazolo[1,5-a]pyrazin-2-yl]-3,5-dimethyl-1,2-oxazole-4-sulfonamide], the EC50 is less than 1 µM. As to `CC(C)S(=O)(=O)Nc1cc2n(n1)CCN(C(=O)c1cc3ccccc3[nH]1)C2` [Example 47, N-[5-(1H-indole-2-carbonyl)-4H,5H,6H,7H-pyrazolo[1,5-a]pyrazin-2-yl]propane-2-sulfonamide], the EC50 was less than 1 µM. On to `Cc1nc(S(=O)(=O)Nc2cc3n(n2)CCN(C(=O)c2cc4ccccc4[nH]2)C3)cn1C` [Example 48, [5-(1H-indole-2-carbonyl)-4H,5H,6H,7H-pyrazolo[1,5-a]pyrazin-2-yl]-1,2-dimethyl-1H-imidazole-4-sulfonamide], for which the half-maximal effective concentration (EC50) lay in the range of 1 to 10 µM. For `Cn1cc(S(=O)(=O)Nc2cc3n(n2)CCN(C(=O)c2cc4ccccc4[nH]2)C3)cn1` [Example 49, N-[5-(1H-indole-2-carbonyl)-4H,5H,6H,7H-pyrazolo[1,5-a]pyrazin-2-yl]-1-methyl-1H-pyrazole-4-sulfonamide], the EC50 is less than 1 µM. Next, `O=C(c1cc2ccccc2[nH]1)N1CCn2nc(NS(=O)(=O)c3cccnc3)cc2C1` [Example 50, N-[5-(1H-indole-2-carbonyl)-4H,5H,6H,7H-pyrazolo[1,5-a]pyrazin-2-yl]pyridine-3-sulfonamide]: less than 1 µM. For `O=C(c1cc2ccccc2[nH]1)N1CCn2nc(NS(=O)(=O)C3CCCCC3)cc2C1` [Example 51, N-[5-(1H-indole-2-carbonyl)-4H,5H,6H,7H-pyrazolo[1,5-a]pyrazin-2-yl]cyclohexanesulfonamide], the concentration for a half-maximal effect (EC50) is less than 1 µM. Next, `COCC1(S(=O)(=O)Nc2cc3n(n2)CCN(C(=O)c2cc4ccccc4[nH]2)C3)CC1` [Example 52, N-[5-(1H-indole-2-carbonyl)-4H,5H,6H,7H-pyrazolo[1,5-a]pyrazin-2-yl]-1-(methoxymethyl)cyclopropane-1-sulfonamide]: less than 1 µM; `O=C(c1cc2ccccc2[nH]1)N1CCn2nc(NS(=O)(=O)C3CCOCC3)cc2C1` [Example 53, N-[5-(1H-indole-2-carbonyl)-4H,5H,6H,7H-pyrazolo[1,5-a]pyrazin-2-yl]oxane-4-sulfonamide]: less than 1 µM. With `COCC1(CNc2cc3n(n2)CCN(C(=O)c2cc4ccccc4[nH]2)C3)CC1` [Example 54, 5-(1H-indole-2-carbonyl)-N-{[1-(methoxymethyl)cyclopropyl]methyl}-4H,5H,6H,7H-pyrazolo[1,5-a]pyrazin-2-amine], the EC50 is less than 1 µM. Turning to `O=C(c1cc2ccccc2[nH]1)N1CCn2nc(NCC3CCCOC3)cc2C1` (stereo not shown) [Example 55, 5-(1H-indole-2-carbonyl)-N-[(oxan-3-yl)methyl]-4H,5H,6H,7H-pyrazolo[1,5-a]pyrazin-2-amine], the half-maximal effective concentration (EC50) is less than 1 µM. Next, `O=C(c1cc2ccccc2[nH]1)N1CCn2nc(NCc3ccccc3)cc2C1` [Example 56, N-benzyl-5-(1H-indole-2-carbonyl)-4H,5H,6H,7H-pyrazolo[1,5-a]pyrazin-2-amine]: 1 to 10 µM. Next, `O=C(Nc1cc2n(n1)CCN(C(=O)c1cc3ccccc3[nH]1)C2)C1CCN(c2ccncc2)CC1` [Example 57, N-[5-(1H-indole-2-carbonyl)-4H,5H,6H,7H-pyrazolo[1,5-a]pyrazin-2-yl]-1-(pyridin-4-yl)piperidine-4-carboxamide]: less than 1 µM.

For the compound `COC(=O)N1CCC(C(=O)Nc2cc3n(n2)CCN(C(=O)c2cc4ccccc4[nH]2)C3)CC1` [Example 58, Methyl 4-{[5-(1H-indole-2-carbonyl)-4H,5H,6H,7H-pyrazolo[1,5-a]pyrazin-2-yl]carbamoyl}piperidine-1-carboxylate], the EC50 was less than 1 µM. `CC(C)(CO)CNc1cc2n(n1)CCN(C(=O)c1cc3ccccc3[nH]1)C2` [Example 59, 3-{[5-(1H-indole-2-carbonyl)-4H,5H,6H,7H-pyrazolo[1,5-a]pyrazin-2-yl]amino}-2,2-dimethylpropan-1-ol]: the half-maximal effective concentration (EC50) is less than 1 µM.

Turning to `COC1(CNc2cc3n(n2)CCN(C(=O)c2cc4ccccc4[nH]2)C3)CCC1` [Example 60, 5-(1H-indole-2-carbonyl)-N-[(1-methoxycyclobutyl)methyl]-4H,5H,6H,7H-pyrazolo[1,5-a]pyrazin-2-amine], the concentration for a half-maximal effect (EC50) is less than 1 µM. Consider `O=C(Nc1cc2n(n1)CCN(C(=O)c1cc3ccccc3[nH]1)C2)C1CCNC(C(F)(F)F)C1` (stereo not shown) [Example 61, N-[5-(1H-indole-2-carbonyl)-4H,5H,6H,7H-pyrazolo[1,5-a]pyrazin-2-yl]-2-(trifluoromethyl)piperidine-4-carboxamide], for which the EC50 was less than 1 µM. Next, `O=C(Nc1cc2n(n1)CCN(C(=O)c1cc3ccccc3[nH]1)C2)C1CCN(CCO)CC1` [Example 62, 1-(2-hydroxyethyl)-N-[5-(1H-indole-2-carbonyl)-4H,5H,6H,7H-pyrazolo[1,5-a]pyrazin-2-yl]piperidine-4-carboxamide]: 1 to 10 µM. For the compound `O=C(Nc1cc2n(n1)CCN(C(=O)c1cc3ccccc3[nH]1)C2)C1CCN(CC(F)(F)F)CC1` [Example 63, N-[5-(1H-indole-2-carbonyl)-4H,5H,6H,7H-pyrazolo[1,5-a]pyrazin-2-yl]-1-(2,2,2-trifluoroethyl)piperidine-4-carboxamide], the EC50 is less than 1 µM. Next, `CS(=O)(=O)N1CCC(C(=O)Nc2cc3n(n2)CCN(C(=O)c2cc4ccccc4[nH]2)C3)CC1` [Example 64, N-[5-(1H-indole-2-carbonyl)-4H,5H,6H,7H-pyrazolo[1,5-a]pyrazin-2-yl]-1-methanesulfonylpiperidine-4-carboxamide]: less than 1 µM.

Take `NC(=O)N1CCC(C(=O)Nc2cc3n(n2)CCN(C(=O)c2cc4ccccc4[nH]2)C3)CC1` [Example 65, N4-[5-(1H-indole-2-carbonyl)-4H,5H,6H,7H-pyrazolo[1,5-a]pyrazin-2-yl]piperidine-1,4-dicarboxamide]: the concentration for a half-maximal effect (EC50) was less than 1 µM.

As for `CC(=O)N1CC(C(=O)Nc2cc3n(n2)CCN(C(=O)c2cc4ccccc4[nH]2)C3)C1` [Example 66, 1-acetyl-N-[5-(1H-indole-2-carbonyl)-4H,5H,6H,7H-pyrazolo[1,5-a]pyrazin-2-yl]azetidine-3-carboxamide], the concentration giving a half-maximal response (EC50) was less than 1 µM. Next, `CNC(=O)Nc1cc2n(n1)CCN(C(=O)c1cc3ccccc3[nH]1)C2` [Example 67, 1-[5-(1H-indole-2-carbonyl)-4H,5H,6H,7H-pyrazolo[1,5-a]pyrazin-2-yl]-3-methylurea]: less than 1 µM.

Take `O=C(Nc1cc2n(n1)CCN(C(=O)c1cc3ccccc3[nH]1)C2)C1CCn2ccnc2C1` (stereo not shown) [Example 68, N-[5-(1H-indole-2-carbonyl)-4H,5H,6H,7H-pyrazolo[1,5-a]pyrazin-2-yl]-5H,6H,7H,8H-imidazo[1,2-a]pyridine-7-carboxamide]: the EC50 was less than 1 µM. Next, `O=C(Nc1cc2n(n1)CCN(C(=O)c1cc3ccccc3[nH]1)C2)C1CCN(C2CCOCC2)CC1` [Example 69, N-[5-(1H-indole-2-carbonyl)-4H,5H,6H,7H-pyrazolo[1,5-a]pyrazin-2-yl]-1-(oxan-4-yl)piperidine-4-carboxamide]: less than 1 µM; `CN1CC(C(=O)Nc2cc3n(n2)CCN(C(=O)c2cc4ccccc4[nH]2)C3)C1` [Example 70, N-[5-(1H-indole-2-carbonyl)-4H,5H,6H,7H-pyrazolo[1,5-a]pyrazin-2-yl]-1-methylazetidine-3-carboxamide]: 1 to 10 µM; `O=C(c1cc2ccccc2[nH]1)N1CCn2nc(NCC3(O)CCC3)cc2C1` [Example 71, 1-({[5-(1H-indole-2-carbonyl)-4H,5H,6H,7H-pyrazolo[1,5-a]pyrazin-2-yl]amino}methyl)cyclobutan-1-ol]: less than 1 µM. Take `CC(CO)CNc1cc2n(n1)CCN(C(=O)c1cc3ccccc3[nH]1)C2` (stereo not shown) [Example 72, 3-{[5-(1H-indole-2-carbonyl)-4H,5H,6H,7H-pyrazolo[1,5-a]pyrazin-2-yl]amino}-2-methylpropan-1-ol]: the 50% effective concentration (EC50) was less than 1 µM.

For `O=C(Nc1cc2n(n1)CCN(C(=O)c1cc3ccccc3[nH]1)C2)C1CCNCC1(F)F` (stereo not shown) [Example 73, 3,3-difluoro-N-[5-(1H-indole-2-carbonyl)-4H,5H,6H,7H-pyrazolo[1,5-a]pyrazin-2-yl]piperidine-4-carboxamide], the concentration giving a half-maximal response (EC50) is less than 1 µM. Next, `O=C(Nc1cc2n(n1)CCN(C(=O)c1cc3ccccc3[nH]1)C2)C1CCN(C2CC2)CC1` [Example 74, 1-cyclopropyl-N-[5-(1H-indole-2-carbonyl)-4H,5H,6H,7H-pyrazolo[1,5-a]pyrazin-2-yl]piperidine-4-carboxamide]: less than 1 µM.
